test system: Groα secretion by HT-29 cells; test: Inhibition of Groα secretion by HT-29 cells stimulated with IL-17A (ELISA); type: cell-based, Human; conditions: Homo sapiens, HT-29, 48 h, IL-17A 30 ng/ml, Groα in supernatant
Description: Test example 2 Assay for inhibitory effect of compounds of the present invention against Groα secretion by HT-29 cells
Experimental objective: to measure the inhibitory effect of the compounds against Groα secretion by HT-29 cells, thereby evaluating the inhibition of the compounds on IL-17A pathway.
Experimental method: A cell suspension at 50,000 cells/ml was prepared, and 200 µl of the cell suspension was added to each well of a 96-well plate, i.e., 10,000 cells/well. The plate was cultured overnight. In the 96-well V-bottom plate, 5 mM compound solution was serially diluted 3-fold using DMSO, and the compound from each well was diluted 100-fold using a complete culture medium. IL-17A protein (R&D, #BT7955-025/CF) with a stock concentration of 100 µg/ml was diluted 333.33-fold using a complete culture medium. The compound and IL-17A were mixed at a volume ratio of 1:1 and incubated at 37°C for 30 minutes. 50 µl of a mixture of the compound and IL-17A was added to cell wells, and the final concentration of IL-17A protein was 30 ng/ml.
The mixture was incubated in a 37°C, 5% CO2 cell culture incubator for 48 hours. The concentration of Groα in the supernatant was determined by ELISA method using Human Groα Valukin Elisa kit (Biotechne, # VAL139), and the absorbance intensity at 450 nm was measured using a microplate reader (PE, EnVision2105). Data were analysed using GraphPad Prism 8.3.0.
Experimental data processing method: Data were analysed using GraphPad Prism 8.3.0.
Inhibition rate% = [(average value of positive control wells - value of sample wells)/(average value of positive control wells - average value of negative control wells)] × 100%, where the sample wells are wells containing cells plus compounds at different concentration gradients, the positive control wells are wells containing cells plus IL-17A, and the negative control wells are wells containing culture medium plus IL-17A.
Curve fitting: The IC50 value was obtained by curve fitting based on the inhibition rate (%) at each concentration using the log(inhibitor) vs. responseVariable slope (four parameters) in GraphPad Prism 6.0, and the calculation equation was Y = Bottom + (Top-Bottom)/(1+10^((LogIC50-X)*HillSlope)).

Row | IC50 [nM] | Compound
1 | 2.7 | [2H]C([2H])([2H])C([2H])([2H])n1nccc1C(=O)N[C@H](C(=O)Nc1ncc([C@@H](CN2C[C@@H](C)OC[C@H]2C)N2CC(F)(F)CCC2=O)s1)[C@H]1CC[C@H](C)CC1 [Example 862, N-((S)-2-((5-((R)-1-(5,5-difluoro-2-oxopiperidin-1-yl)-2-((2R,5R)-2,5-dimethylmorpholino)ethyl)thiazol-2-yl)amino)-1-((1r,4S)-4-methylcyclohexyl)-2-oxoethyl)-1-(ethyl-d5)-1H-pyrazole-5-carboxamide]
2 | 3 | [2H]C([2H])([2H])C([2H])([2H])n1nccc1C(=O)N[C@H](C(=O)Nc1ncc([C@@H](CN2CCO[C@H](CF)C2)N2CC(F)(F)CCC2=O)s1)[C@H]1CC[C@H](C)CC1 [Example 820, N-((S)-2-((5-((R)-1-(5,5-difluoro-2-oxopiperidin-1-yl)-2-((S)-2-(fluoromethyl)morpholino)ethyl)thiazol-2-yl)amino)-1-((1r,4S)-4-methylcyclohexyl)-2-oxoethyl)-1-(ethyl-d5)-1H-pyrazole-5-carboxamide]
3 | 8.8 | [2H]C([2H])([2H])OC1(C)CCN(C[C@H](c2cnc(NC(=O)[C@@H](NC(=O)c3ccnn3C([2H])([2H])C([2H])([2H])[2H])[C@H]3CC[C@H](C)CC3)s2)N2CC(F)(F)CCC2=O)CC1 [Example 988]
4 | 8.5 | CCn1nccc1C(=O)N[C@H](C(=O)Nc1ncc([C@@H](CN2CCCCC2)N2CC(F)(F)CCC2=O)s1)[C@H]1CC[C@H](C)CC1 [Example 1021]
5 | 2.5 | CCn1nccc1C(=O)N[C@H](C(=O)Nc1ncc([C@@H](CN2CCC(OC)CC2)n2cc(Cl)ccc2=O)s1)[C@H]1CC[C@H](C)CC1 [Example 634]
6 | 7 | COCCN(C)C[C@H](c1cnc(NC(=O)[C@@H](NC(=O)c2ccnn2C)[C@H]2CC[C@H](C)CC2)s1)N1CC(F)(F)CCC1=O [Example 1024]
7 | 2 | [2H]C([2H])([2H])C([2H])([2H])n1nccc1C(=O)N[C@H](C(=O)Nc1ncc([C@@H](CN2C[C@H](C)OC[C@@H]2C)N2CC(F)(F)CCC2=O)s1)[C@H]1CC[C@H](C)CC1 [Example 860, N-((S)-2-((5-((R)-1-(5,5-difluoro-2-oxopiperidin-1-yl)-2-((2S,5S)-2,5-dimethylmorpholino)ethyl)thiazol-2-yl)amino)-1-((1r,4S)-4-methylcyclohexyl)-2-oxoethyl)-1-(ethyl-d5)-1H-pyrazole-5-carboxamide]
8 | 3.5 | [2H]C([2H])([2H])C([2H])([2H])n1nccc1C(=O)N[C@H](C(=O)Nc1ncc([C@@H](CN2CCC(F)(F)CC2)N2CC(F)(F)CCC2=O)s1)[C@H]1CC[C@H](C)CC1 [Example 913]
9 | 5.2 | CCn1nccc1C(=O)N[C@H](C(=O)Nc1ncc([C@@H](COC)n2cc(Cl)ccc2=O)s1)[C@H]1CC[C@H](C)CC1 [Example 689]
10 | 9 | [2H]C([2H])([2H])OC1CCN(C[C@H](c2cnc(NC(=O)[C@@H](NC(=O)c3ccnn3C([2H])([2H])C([2H])([2H])[2H])[C@H]3CC[C@H](C)CC3)s2)N2CC(F)(F)CCC2=O)CC1 [Example 986]
11 | 4 | COC[C@H](c1cnc(NC(=O)[C@@H](NC(=O)c2ccnn2C(C)C)C2CCCCC2)s1)N1CC(F)(F)CNC1=O [Example 565]
12 | 6 | CCn1nccc1C(=O)N[C@H](C(=O)Nc1ncc([C@@H](CN2CCC(COC)CC2)N2CC(F)(F)CCC2=O)s1)[C@H]1CC[C@H](C)CC1 [Example 1036]
13 | 8 | [2H]C([2H])([2H])n1nccc1C(=O)N[C@H](C(=O)Nc1ncc([C@@H](CN2CCC3(COC3)C2)N2CC(F)(F)CCC2=O)s1)[C@H]1CC[C@H](C)CC1 [Example 1032]
14 | 8.4 | [2H]C([2H])([2H])C([2H])([2H])n1nccc1C(=O)N[C@H](C(=O)Nc1ncc(C(COC)n2cc(Cl)ccc2=O)s1)[C@H]1CC[C@H](C)CC1 (stereo partly drawn) [Example 586-1]
15 | 6 | [2H]C([2H])([2H])C([2H])([2H])n1nccc1C(=O)N[C@H](C(=O)Nc1ncc([C@@H](CN2CCC3(CCOC3)CC2)N2CC(F)(F)CCC2=O)s1)[C@H]1CC[C@H](C)CC1 [Example 1034]
16 | 5.5 | [2H]C1([2H])NC(=O)N([C@H](COC)c2cnc(NC(=O)[C@@H](NC(=O)c3ccnn3C(C)C)C3CCC(F)(F)CC3)s2)C([2H])([2H])C1(F)F [Example 259, N-((S)-2-((5-((R)-1-(5,5-difluoro-2-carbonyltetrahydropyrimidin-1(2H)-yl-4,4,6,6-d4)-2-methoxyethyl)thiazol-2-yl)amino)-1-(4,4-difluorocyclohexyl)-2-carbonylethyl)-1-isopropyl-1H-pyrazole-5-carboxamide]

Row | IC50 [nM] | Compound
17 | 1.6 | CCn1nccc1C(=O)N[C@H](C(=O)Nc1ncc([C@@H](CN2CCC(C(=O)O)CC2)n2cc(Cl)ccc2=O)s1)[C@H]1CC[C@H](C)CC1 [Example 663]
18 | 10 | CCn1nccc1C(=O)N[C@H](C(=O)Nc1ncc([C@@H](CN2CCCC2)N2CC(F)(F)CCC2=O)s1)[C@H]1CC[C@H](C)CC1 [Example 1022]
19 | 2 | C[C@H]1CC[C@H]([C@H](NC(=O)C2(F)CC2)C(=O)Nc2ncc([C@@H](CN3CCC4(CC3)CC4(F)F)N3CC(F)(F)CNC3=O)s2)CC1 [Example 1016]
20 | 5.9 | COCCC(c1cnc(NC(=C=O)[C@@H](NC(=O)c2ccnn2C(C)C)C2CCCCC2)s1)N1C[C@@H](C(F)(F)F)NC1=C=O (stereo partly drawn) [Example 564, N-((1S)-1-cyclohexyl-2-((5-(3-methoxy-1-((S)-2-carbonyl-4-(trifluoromethyl)imidazolidin-1-yl)propyl)thiazol-2-yl)amino)-2-carbonylethyl)-1-isopropyl-1H-pyrazole-5-carboxamide]
21 | 3.8 | CCn1nccc1C(=O)N[C@H](C(=O)Nc1ncc([C@@H](CN(C)C)n2cc(Cl)ccc2=O)s1)[C@H]1CC[C@H](C)CC1 [Example 644]
22 | 8 | CCc1nonc1C(=O)N[C@H](C(=O)Nc1ncc(C(C2CCS(=O)(=O)CC2)n2cc(Cl)ccc2=O)s1)[C@H]1CC[C@H](C)CC1 (stereo partly drawn) [Example 540-1]
23 | 7 | [2H]C([2H])([2H])n1nccc1C(=O)N[C@H](C(=O)Nc1ncc([C@@H](CN2CCOCC2)N2CC(F)(F)CCC2=O)s1)[C@H]1CC[C@H](C)CC1 [Example 1030]
24 | 2.5 | CCn1nccc1C(=O)N[C@H](C(=O)Nc1ncc([C@@H](CN2CCC3(CC2)OCCO3)n2cc(Cl)ccc2=O)s1)[C@H]1CC[C@H](C)CC1 [Example 1020]
25 | 4 | [2H]C([2H])([2H])C([2H])([2H])n1nccc1C(=O)NC(C(=O)Nc1ncc(C(CN2CCC3C(C2)C3(F)F)N2CC(F)(F)CCC2=O)s1)C1CCC(C)CC1 (stereo not drawn) [Example 970]
26 | 10 | CCn1nccc1C(=O)N[C@H](C(=O)Nc1ncc([C@@H](CN(C)CCOC)N2CC(F)(F)CCC2=O)s1)[C@H]1CC[C@H](C)CC1 [Example 1023]
27 | 3.2 | CCn1nccc1C(=O)N[C@H](C(=O)Nc1ncc([C@@H](CN2C[C@@H](C)OC[C@H]2C)N2CC(F)(F)CCC2=O)s1)[C@H]1CC[C@H](C)CC1 [Example 863]
28 | 5 | [2H]C([2H])([2H])C([2H])([2H])n1nccc1C(=O)N[C@H](C(=O)Nc1ncc([C@@H](CN2CCOCC2)n2cc(Cl)ccc2=O)s1)[C@H]1CC[C@H](C)CC1 [Example 574]
29 | 9.6 | CCn1nccc1C(=O)NC(C(=O)Nc1ncc(C(CN2CCC(OC)C2)N2CC(F)(F)CCC2=O)s1)C1CCC(C)CC1 (stereo not drawn) [Example 648]
30 | 4 | [2H]C([2H])([2H])C([2H])([2H])n1nccc1C(=O)N[C@H](C(=O)Nc1ncc([C@@H](CN2CCC(F)CC2)N2CC(F)(F)CCC2=O)s1)[C@H]1CC[C@H](C)CC1 [Example 919]
31 | 7 | C[C@H]1CC[C@H]([C@H](NC(=O)C2(F)CC2)C(=O)Nc2ncc([C@@H](CN3CCC(CF)CC3)N3CC(F)(F)CNC3=O)s2)CC1 [Example 767]
32 | 5 | [2H]C([2H])([2H])C([2H])([2H])n1nccc1C(=O)N[C@H](C(=O)Nc1ncc([C@@H](CN2CCC(=C(F)F)CC2)N2CC(F)(F)CCC2=O)s1)[C@H]1CC[C@H](C)CC1 [Example 980]

same assay, conditions: Homo sapiens, IL-17A 30 ng/ml, 48 hours, Groα in supernatant

Row | Compound | IC50 [nM]
33 | [2H]C([2H])([2H])OC1CCN(C[C@H](c2cnc(NC(=O)[C@@H](NC(=O)C3(F)CC3)[C@H]3CC[C@H](C)CC3)s2)N2CC(F)(F)CNC2=O)CC1 [Example 780] | 10
34 | C[C@H]1CC[C@H]([C@H](NC(=O)C2(F)CC2)C(=O)Nc2ncc([C@@H](CN3CC4CCC(C3)O4)N3CC(F)(F)CNC3=O)s2)CC1 [Example 743] | 6
35 | COC[C@H](c1cnc(NC(=O)[C@@H](NC(=O)c2ccnn2C(C)C)[C@H]2CC[C@H](C)CC2)s1)N1CC(F)(F)CNC1=O [Example 327] | 2.5

same assay, conditions: IL-17A 30 ng/ml, 48 hours, Groα in supernatant

Row | IC50 [nM] | Compound
36 | 6 | CCn1nccc1C(=O)NC(C(=O)Nc1ncc(C(CN2CCC(OC)C2)N2CC(F)(F)CCC2=O)s1)C1CCC(C)CC1 (stereo not drawn) [Example 650]
